# Measured values from US20040121316A1 (priority 2002, published 2004).
# Like-named read-outs stand apart in the source and are kept apart here.
# What was measured:
# [1] = tested on: wild-type HIV-1 strain IIIB; assay: microbe, parasite or virus in culture; assay type: cell-based; design: scale not given here
# mutant HIV-1 I84V/L90M = assay: Resistance Evaluation, I84V/L90M fold change; assay type: cell-based; design: scale not given here
# [2] = molecular target: T1, recombinant HIV-1 protease (Human immunodeficiency virus type 1 group M subtype B, UniProt P04585); assay: biochemical
# T1 construct: Enzyme: recombinant HIV-1 protease expressed in E.Coli; purchased Bachem California, Inc. H-9040; host or cells: E. coli
# [3] = Human immunodeficiency virus 1, IIIB
# [4] = EC50 of mutant I84V/L90M relative to wild type, class symbols
SMILES,"EC50 [1, 3] [nM]",I84V/L90M fold change (mutant HIV-1 I84V/L90M; mutant I84V/L90M vs wild type),other results
COc1ccc(S(=O)(=O)N(CC(C)C)CC(O)C(CNc2ccc(CP(=O)(O)O)cc2)NC(=O)OC2COC3OCCC23)cc1 (stereo not drawn),500 to 5000,,I84V/L90M fold change (mutant HIV-1 I84V/L90M; [4]): + (>3 to ≦10)
CCOP(=O)(CCN1CCN(CC(NC(=O)OC2COC3OCCC23)C(O)CN(CC(C)C)S(=O)(=O)c2ccc(OC)cc2)CC1)OCC (stereo not drawn),,,Ki [2]: + +
CCOC(=O)C(C)OP(=O)(CN1CC=C(CC(NC(=O)OC2COC3OCCC23)C(O)CN(CC(C)C)S(=O)(=O)c2ccc(OC)cc2)CC1)Oc1ccccc1 (stereo not drawn),,− (≦3),EC50 (nM) [1]: + + +
COc1ccc(S(=O)(=O)N(CCN2CCOCC2)CC(O)C(Cc2ccc(OCP(=O)(O)O)cc2)NC(=O)OC2COC3OCCC23)cc1 (stereo not drawn),> 5000,+ (>3 to ≦10),
Cc1cccc(C)c1OCC(=O)NC(Cc1ccc(OCP(=O)(O)O)cc1)C(O)CN(CC(C)C)S(=O)(=O)c1ccc(N)cc1 (stereo not drawn),> 5000,− (≦3),
Cc1ccc(C(=O)NC(Cc2ccc(OCP(=O)(O)O)cc2)C(O)CN(CC(C)C)S(=O)(=O)c2ccc(N)cc2)cc1O (stereo not drawn),> 5000,+ (>3 to ≦10),
CC(C)CN(CC(O)C(Cc1ccc(OCP(=O)(O)O)cc1)NC(=O)OC1COC2OCCC12)S(=O)(=O)c1ccc(N)cc1 (stereo not drawn),> 5000,− (≦3),
CCOP(=O)(COc1ccc(CC(NC(=O)OC2COC3OCCC23)C(O)CN(CC(C)C)S(=O)(=O)c2ccc(N)cc2)cc1)OCC (stereo not drawn),,− (≦3),
CCNc1ccc(S(=O)(=O)N(CC(C)C)CC(O)C(Cc2ccc(OCP(=O)(OCC)OCC)cc2)NC(=O)OC2COC3OCCC23)cc1 (stereo not drawn),,− (≦3),
CC(C)CN(CC(O)C(Cc1ccc(OCP(=O)(OCc2ccccc2)OCc2ccccc2)cc1)NC(=O)OC1COC2OCCC12)S(=O)(=O)c1ccc(N)cc1 (stereo not drawn),,− (≦3),
CC(C)CN(CC(O)C(Cc1ccc(OCP(=O)(O)O)cc1)NC(=O)OC1COC2OCCC12)S(=O)(=O)c1cccc(N)c1 (stereo not drawn),500 to 5000,− (≦3),
CCOP(=O)(COc1ccc(CC(NC(=O)OC2COC3OCCC23)C(O)CN(CC(C)C)S(=O)(=O)c2cccc(N)c2)cc1)OCC (stereo not drawn),,− (≦3),
CC(C)CN(CC(O)C(Cc1ccc(OCP(=O)(OCc2ccccc2)OCc2ccccc2)cc1)NC(=O)OC1COC2OCCC12)S(=O)(=O)c1cccc(N)c1 (stereo not drawn),,− (≦3),
CC(C)CN(CC(O)C(Cc1ccc(OCP(=O)(OCc2ccccc2)OCc2ccccc2)cc1)NC(=O)OC1COC2OCCC12)S(=O)(=O)c1ccccc1 (stereo not drawn),,+ (>3 to ≦10),
CC(C)CN(CC(O)C(Cc1ccc(OCP(=O)(OCc2ccccc2)OCc2ccccc2)cc1)NC(=O)OC1COC2OCCC12)S(=O)(=O)c1ccc(F)cc1 (stereo not drawn),,+ (>3 to ≦10),
CC(C)CN(CC(O)C(Cc1ccc(OCP(=O)(OCc2ccccc2)OCc2ccccc2)cc1)NC(=O)OC1COC2OCCC12)S(=O)(=O)c1ccc(C(F)(F)F)cc1 (stereo not drawn),,− (≦3),
CC(C)CN(CC(O)C(Cc1ccc(OCP(=O)(OCc2ccccc2)OCc2ccccc2)cc1)NC(=O)OC1COC2OCCC12)S(=O)(=O)c1ccc(C#N)cc1 (stereo not drawn),,− (≦3),
Cc1ccc(C(=O)N[C@@H](Cc2ccc(OCP(=O)(OCc3ccccc3)OCc3ccccc3)cc2)[C@H](O)CN(CC(C)C)S(=O)(=O)c2ccc(N)cc2)cc1O,,,Ki (pM) [2]: + +
CCCCOC(=O)C(C)OP(=O)(COc1ccc(C[C@H](NC(=O)O[C@H]2CO[C@H]3OCC[C@H]32)[C@H](O)CN(CC(C)C)S(=O)(=O)c2cccc(N)c2)cc1)Oc1ccccc1 (stereo partly drawn),,− (≦3),EC50 (nM) [1]: + +
CC(C)CN(CC(O)C(Cc1ccccc1)NC(=O)OC1COC2OCCC12)S(=O)(=O)c1ccc(O)cc1 (stereo not drawn),,− (≦3),
CC(C)CN(CC(O)C(Cc1ccccc1)NC(=O)OC1COC2OCCC12)S(=O)(=O)c1ccc(OCP(=O)(O)O)cc1 (stereo not drawn),500 to 5000,− (≦3),
CC(C)CN(CC(O)C(Cc1ccccc1)NC(=O)OC1COC2OCCC12)S(=O)(=O)c1cccc(O)c1 (stereo not drawn),,+ (>3 to ≦10),
CC(C)CN(CC(O)C(Cc1ccccc1)NC(=O)OC1COC2OCCC12)S(=O)(=O)c1cccc(OCP(=O)(O)O)c1 (stereo not drawn),,+ (>3 to ≦10),

SMILES,"EC50 [1, 3] [nM]",I84V/L90M fold change (mutant HIV-1 I84V/L90M; mutant I84V/L90M vs wild type),other results
COc1ccc(S(=O)(=O)N(CC(C)C)CC(O)C(Cc2ccccc2)NC(=O)OC2COC3OCCC23)cc1O (stereo not drawn),,− (≦3),
COc1ccc(S(=O)(=O)N(CC(C)C)CC(O)C(Cc2ccccc2)NC(=O)OC2COC3OCCC23)cc1OCP(=O)(O)O (stereo not drawn),,− (≦3),
CCOP(=O)(COc1cc(S(=O)(=O)N(CC(C)C)CC(O)C(Cc2ccccc2)NC(=O)OC2COC3OCCC23)ccc1OC)OCC (stereo not drawn),,+ (>3 to ≦10),
CCOP(=O)(COc1cc(S(=O)(=O)N(CC(C)C)CC(O)C(Cc2ccccc2)NC(=O)OC2COC3OCCC23)ccc1O)OCC (stereo not drawn),,− (≦3),
CCOC(=O)C(C)NP(=O)(COc1ccc(CC(NC(=O)OC2COC3OCCC23)C(O)CN(CC(C)C)S(=O)(=O)c2ccc(OC)cc2)cc1)OCc1ccccc1 (stereo not drawn) [Example 30e],< 50,,I84V/L90M fold change (mutant HIV-1 I84V/L90M; [4]): − (≦3)
"CCOP(=O)(COc1ccc(S(=O)(=O)N(CC(C)C)CC(O)C(Cc2ccc(N)cc2)NC(=O)OC2COC3OCCC23)cc1)OCC (stereo not drawn) [NH2, OEt]",,++ (>10 to ≦30),EC50 ([1]; read-out: EC50): 50 to 500 nM
"CCOP(=O)(COc1ccc(S(=O)(=O)N(CC(C)C)CC(O)C(Cc2ccc(N(C)C)cc2)NC(=O)OC2COC3OCCC23)cc1)OCC (stereo not drawn) [NMe2, OEt]",,++ (>10 to ≦30),EC50 ([1]; read-out: EC50): < 50 nM
"CC(C)CN(CC(O)C(Cc1ccc(O)cc1)NC(=O)OC1COC2OCCC12)S(=O)(=O)c1cccc(N)c1 (stereo not drawn) [OH, m-NH2]",,− (≦3),EC50 (nM) [1]: + +
"CC(C)CN(CC(O)C(Cc1ccc(O)cc1)NC(=O)OC1COC2OCCC12)S(=O)(=O)c1ccc(N)cc1 (stereo not drawn) [OH, p-NH2]",,− (≦3),EC50 (nM) [1]: + +
"COc1ccc(S(=O)(=O)N(CC(C)C)C[C@@H](O)[C@H](Cc2ccc(OCP(=O)(OCc3ccccc3)OCc3ccccc3)cc2)NC(=O)OC2CCOC2)cc1 (stereo partly drawn) [OMe, OBn]",,+ +,EC50 (nM) [1]: + + +
"COc1ccc(S(=O)(=O)N(CC(C)C)C[C@@H](O)[C@H](Cc2ccc(OCP(=O)(O)O)cc2)NC(=O)OC2CCOC2)cc1 (stereo partly drawn) [OMe, OH]",,+ + +,EC50 ([1]; read-out: EC50): > 5000 nM
CCCCOC(=O)C(CC)NP(=O)(COc1ccc(CC(NC(=O)OC2COC3OCCC23)C(O)CN(CC(C)C)S(=O)(=O)c2ccc(OC)cc2)cc1)NC(CC)C(=O)OCCCC (stereo not drawn) [drawing 612 R1=Aba-Bu R2=Aba-Bu],< 50,,I84V/L90M fold change (mutant HIV-1 I84V/L90M; [4]): + (>3 to ≦10)
CCCCOC(=O)C(CC(C)C)NP(=O)(COc1ccc(CC(NC(=O)OC2COC3OCCC23)C(O)CN(CC(C)C)S(=O)(=O)c2ccc(OC)cc2)cc1)NC(CC(C)C)C(=O)OCCCC (stereo not drawn) [drawing 612 R1=Leu-Bu R2=Leu-Bu],50 to 500,,I84V/L90M fold change (mutant HIV-1 I84V/L90M; [4]): + (>3 to ≦10)
CCNP(=O)(COc1ccc(CC(NC(=O)OC2COC3OCCC23)C(O)CN(CC(C)C)S(=O)(=O)c2ccc(OC)cc2)cc1)NCC (stereo not drawn) [drawing 612 R1=NHEt R2=NHEt],50 to 500,,I84V/L90M fold change (mutant HIV-1 I84V/L90M; [4]): − (≦3)
CCOC(=O)C(NP(=O)(COc1ccc(CC(NC(=O)OC2COC3OCCC23)C(O)CN(CC(C)C)S(=O)(=O)c2ccc(OC)cc2)cc1)NC(C(=O)OCC)C(C)C)C(C)C (stereo not drawn) [drawing 612 R1=Val-Et R2=Val-Et],< 50,,I84V/L90M fold change (mutant HIV-1 I84V/L90M; [4]): − (≦3)
CCOC(=O)C(C)OP(=O)(COc1ccc(CC(NC(=O)OC2COC3OCCC23)C(O)CN(CC(C)C)S(=O)(=O)c2ccc(OC)cc2)cc1)OC(C)C(=O)OCC (stereo not drawn) [drawing 613 R1=Lac-Et R2=Lac-Et],50 to 500,,I84V/L90M fold change (mutant HIV-1 I84V/L90M; [4]): − (≦3)
COc1ccc(S(=O)(=O)N(CC(C)C)CC(O)C(Cc2ccc(OCP(=O)(OC(C)C(=O)OC(C)C)OC(C)C(=O)OC(C)C)cc2)NC(=O)OC2COC3OCCC23)cc1 (stereo not drawn) [drawing 613 R1=Lac-iPr R2=Lac-iPr],< 50,,I84V/L90M fold change (mutant HIV-1 I84V/L90M; [4]): − (≦3)
COc1ccc(S(=O)(=O)N(CC(C)C)CC(O)C(Cc2ccc(OCP(=O)(O)OC(C)C(=O)O)cc2)NC(=O)OC2COC3OCCC23)cc1 [drawing 615 R1=OH R2=(R)Lac-OH],,,I84V/L90M fold change (mutant HIV-1 I84V/L90M; [4]): − (≦3)
COc1ccc(S(=O)(=O)N(CC(C)C)CC(O)C(Cc2ccc(OCP(=O)(O)OC(C)C(=O)O)cc2)NC(=O)OC2COC3OCCC23)cc1 (stereo not drawn) [drawing 615 R1=OH R2=Lac-OH],500 to 5000,,I84V/L90M fold change (mutant HIV-1 I84V/L90M; [4]): − (≦3)
CCOP(=O)(CON=Cc1ccc(CC(NC(=O)OC2COC3OCCC23)C(O)CN(CC(C)C)S(=O)(=O)c2ccc(OC)cc2)cc1)OCC (stereo not drawn) [drawing 621 R1=Et R2=Et],,,EC50 [1]: + + +; I84V/L90M fold change (mutant HIV-1 I84V/L90M; [4]): − (≦3)
COc1ccc(S(=O)(=O)N(CC(C)C)CC(O)C(CC2=CCN(CCP(=O)(OCc3ccccc3)OCc3ccccc3)CC2)NC(=O)OC2COC3OCCC23)cc1 (stereo not drawn) [drawing 630],,,I84V/L90M fold change (mutant HIV-1 I84V/L90M; [4]): + (>3 to ≦10)
COc1ccc(S(=O)(=O)N(CC(C)C)CC(O)C(Cc2ccc(NCP(=O)(NC(C)C(=O)OC(C)C)Oc3ccccc3)cc2)NC(=O)OC2COC3OCCC23)cc1 (stereo not drawn) [drawing 660],,,"Ki ([2]; class symbols, Table 10): + +"
